Where a SMILES comes first, the peptide text is derived from it. The star is where a group is joined. Palmitoyl = CCCCCCCCCCCCCCCC(=O)*; NHhexadecyl = CCCCCCCCCCCCCCCCN*
How the values were obtained:
[1] = test system: human dermal fibroblast (HDFa) cells; settings: 72 h
[2] = test system: human breast cancer (MCF-7) cells; settings: 72 h

| IC50 [2] [µM] | Compound | IC50 [1] [µM] |
| --- | --- | --- |
| 230 | CCCCCCCCCCCCCCCCNC(=O)[C@@H](NC(=O)[C@H](CCCCN)NC(=O)[C@@H]1CCCN1C(=O)[C@H](CCC(=O)O)NC(=O)[C@H](C)NC(=O)[C@@H]1CCCN1)[C@@H](C)CC [PAEPKI-C16] (H-PAEPKI-NHhexadecyl) | 100 |
| 630 | CCCCCCCCCCCCCCCC(=O)N[C@H](C(=O)N[C@@H](CCCCN)C(=O)N1CCC[C@H]1C(=O)N[C@@H](CCC(=O)O)C(=O)N[C@@H](C)C(=O)N1CCC[C@H]1C(=O)O)[C@@H](C)CC [C16-IKPEAP] (Palmitoyl-IKPEAP-OH) | 390 |
